Measured values reported in paper PMC3557166, “'Le Rouge et le Noir': A decline in flavone formation correlates with the rare color of black dahlia (Dahlia variabilis hort.) flowers” (BMC Plant Biology, 2012).
Positions count from the first letter of the chain named.

Assays:
[1] = biological target: T1, FNS II (cv. Aurora's Kiss, GQ489010) (Dahlia pinnata, UniProt G3BGL8); experiment: […]-flavanone conversion to flavone, TLC radioscan, recombinant yeast preparation; format: biochemical; conditions: NADPH; labelled compound
T1 construct: full-length ORF in pYES2.1/V5-His-TOPO, expressed in S. cerevisiae INVSc1
T1 sequence (G3BGL8 1-513): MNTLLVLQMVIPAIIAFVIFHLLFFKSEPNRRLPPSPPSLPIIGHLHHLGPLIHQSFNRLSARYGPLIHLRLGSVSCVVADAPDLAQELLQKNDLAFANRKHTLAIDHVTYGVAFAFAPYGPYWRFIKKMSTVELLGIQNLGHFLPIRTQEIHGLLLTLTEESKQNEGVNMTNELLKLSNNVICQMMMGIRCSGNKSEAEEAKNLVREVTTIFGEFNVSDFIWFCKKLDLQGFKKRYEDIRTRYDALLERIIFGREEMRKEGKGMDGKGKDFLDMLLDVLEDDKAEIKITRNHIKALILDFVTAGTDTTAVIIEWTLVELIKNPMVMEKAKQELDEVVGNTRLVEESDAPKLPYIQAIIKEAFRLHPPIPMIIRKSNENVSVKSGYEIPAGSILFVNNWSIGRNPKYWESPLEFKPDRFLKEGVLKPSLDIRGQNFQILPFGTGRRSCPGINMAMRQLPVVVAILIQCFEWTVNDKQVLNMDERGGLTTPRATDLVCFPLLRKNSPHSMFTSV

[2] = biological target: T2, FNS II (cv. Chat Noir, GQ489008) (Dahlia pinnata, UniProt G3BGL6); experiment: as above; format: biochemical; conditions: NADPH; labelled compound
T2 construct: full-length ORF in pYES2.1/V5-His-TOPO, expressed in S. cerevisiae INVSc1
T2 sequence (G3BGL6 1-514): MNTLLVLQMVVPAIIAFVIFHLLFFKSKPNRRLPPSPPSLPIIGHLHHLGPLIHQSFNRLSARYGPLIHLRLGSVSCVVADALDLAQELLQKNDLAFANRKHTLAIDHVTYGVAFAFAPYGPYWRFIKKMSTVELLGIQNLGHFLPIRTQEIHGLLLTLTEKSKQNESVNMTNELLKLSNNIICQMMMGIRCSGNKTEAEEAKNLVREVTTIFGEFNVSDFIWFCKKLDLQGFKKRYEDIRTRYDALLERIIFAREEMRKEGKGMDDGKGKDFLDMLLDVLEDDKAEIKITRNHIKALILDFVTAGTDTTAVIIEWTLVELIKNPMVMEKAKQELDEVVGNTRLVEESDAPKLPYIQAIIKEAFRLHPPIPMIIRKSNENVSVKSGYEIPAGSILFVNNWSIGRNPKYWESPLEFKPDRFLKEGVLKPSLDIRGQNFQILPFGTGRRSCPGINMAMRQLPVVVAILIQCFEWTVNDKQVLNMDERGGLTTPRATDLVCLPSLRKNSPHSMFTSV

[3] = biological target: T3, FNS II (cv. Feuerschein, GQ479806) (Dahlia pinnata, UniProt G8Z369); experiment: as above; format: biochemical; conditions: NADPH; labelled compound
T3 construct: gene DvFNS1; full-length ORF in pYES2.1/V5-His-TOPO, expressed in S. cerevisiae INVSc1
T3 sequence (G8Z369 1-514): T2 sequence (G3BGL6 1-514) with V11I, L83P, D266E, L499F, S501L

[4] = biological target: T4, FNS II (cv. White Alva, GQ489011) (Dahlia pinnata, UniProt G3BGL9); experiment: as above; format: biochemical; conditions: NADPH; labelled compound
T4 construct: full-length ORF in pYES2.1/V5-His-TOPO, expressed in S. cerevisiae INVSc1
T4 sequence (G3BGL9 1-513): T1 sequence (G3BGL8 1-513) with I19L, E28K, A80V, L157Q, E162K, G168S, F224C, V462I

[5] = system: T5, recombinant FNS II (cv. Rubens GQ479808 and cv. Chat Noir GQ489009); experiment: […]-flavanone conversion to luteolin, TLC radioscan, recombinant yeast preparation; format: biochemical, Dahlia pinnata; conditions: NADPH; pH optimum 7.50; 25-30°C optimum; labelled compound; clone (GQ479808 or GQ489009) not told; read-out: apparent Km
T5 construct: full-length ORF in pYES2.1/V5-His-TOPO, expressed in S. cerevisiae INVSc1

[6] = biological target: T6, FNS II (cv. Alva's Supreme, GQ479807) (Dahlia pinnata, UniProt G8Z370); experiment: […]-flavanone conversion to flavone, TLC radioscan, recombinant yeast preparation; format: biochemical; conditions: NADPH; labelled compound
T6 construct: full-length ORF in pYES2.1/V5-His-TOPO, expressed in S. cerevisiae INVSc1
T6 sequence (G8Z370 1-514): T2 sequence (G3BGL6 1-514) with V11I, L83P, C184Y, L499F, S501L

[7] = biological target: T7, FNS II (cv. Rubens, GQ479809) (Dahlia pinnata, UniProt G8Z372); experiment: as above; format: biochemical; conditions: NADPH; labelled compound
T7 construct: full-length ORF in pYES2.1/V5-His-TOPO, expressed in S. cerevisiae INVSc1
T7 sequence (G8Z372 1-513): T1 sequence (G3BGL8 1-513) with F24V, E162K, G168S, K421E, D482N, T489A, S512L

[8] = system: T5, recombinant FNS II (cv. Rubens GQ479808 and cv. Chat Noir GQ489009); experiment: […]-flavanone conversion to apigenin, TLC radioscan, recombinant yeast preparation; format: biochemical, Dahlia pinnata; conditions: NADPH; pH optimum 6.50; 25-30°C optimum; labelled compound; clone (GQ479808 or GQ489009) not told; read-out: apparent Km

Question: What does the source list for `O=C1C[C@@H](c2ccc(O)c(O)c2)Oc2cc(O)cc(O)c21` [eriodictyol]?
Answer: 14C-flavanone conversion to flavone, TLC radioscan, recombinant yeast preparatio [1]: formation of apigenin and luteolin from naringenin and eriodictyol, respectively; 14C-flavanone conversion to flavone, TLC radioscan, recombinant yeast preparatio [2]: formation of apigenin and luteolin from naringenin and eriodictyol, respectively; 14C-flavanone conversion to flavone, TLC radioscan, recombinant yeast preparatio [3]: formation of apigenin and luteolin from naringenin and eriodictyol, respectively; 14C-flavanone conversion to flavone, TLC radioscan, recombinant yeast preparatio [4]: formation of apigenin and luteolin from naringenin and eriodictyol, respectively; Km [5]: 4.2 µM; 14C-flavanone conversion to flavone, TLC radioscan, recombinant yeast preparatio [6]: formation of apigenin and luteolin from naringenin and eriodictyol, respectively; 14C-flavanone conversion to flavone, TLC radioscan, recombinant yeast preparatio [7]: formation of apigenin and luteolin from naringenin and eriodictyol, respectively

Question: `O=C1C[C@@H](c2ccc(O)cc2)Oc2cc(O)cc(O)c21` [naringenin] was tested. Which “14C-flavanone conversion to flavone, TLC radioscan, recombinant yeast preparatio” value (from here on “14C-flavanone conversion to flavone”) [1] did it give?
Answer: formation of apigenin and luteolin from naringenin and eriodictyol, respectively

Question: What about the “14C-flavanone conversion to flavone” value [2] of the same compound?
Answer: formation of apigenin and luteolin from naringenin and eriodictyol, respectively

Question: What about the “14C-flavanone conversion to flavone” value [3] of the same compound?
Answer: formation of apigenin and luteolin from naringenin and eriodictyol, respectively

Question: What about the “14C-flavanone conversion to flavone” value [4] of the same compound?
Answer: formation of apigenin and luteolin from naringenin and eriodictyol, respectively

Question: And the Km [8]?
Answer: 3.86 µM

Question: What about the “14C-flavanone conversion to flavone” value [6] of the same compound?
Answer: formation of apigenin and luteolin from naringenin and eriodictyol, respectively

Question: And the “14C-flavanone conversion to flavone” value [7]?
Answer: formation of apigenin and luteolin from naringenin and eriodictyol, respectively
